Test results published in ChEMBL document CHEMBL1949526, “Cyclic hydroxyamidines as amide isosteres: discovery of oxadiazolines and oxadiazines as potent and highly efficacious γ-secretase modulators in vivo” (J Med Chem, 2012).

Tests used:
Gamma-secretase [1] = test: Modulation of gamma-secretase-mediated cleavage of human APP Swedish and London mutation expressed in HEK293 cells assessed as inhibition of amyloid beta42 production after 5 hrs by sandwich immunoassay; assay type: cell-based
Gamma-secretase [2] = test: Modulation of gamma-secretase-mediated cleavage of human APP Swedish and London mutation expressed in HEK293 cells assessed as reduction of total amyloid beta level after 5 hrs by sandwich immunoassay; assay type: cell-based
[3] = biological target: Gamma-secretase (Homo sapiens) (UniProt Q96BI3+Q9NZ42+Q8WW43+P49768+Q92542+P49810); test: Modulation of gamma-secretase-mediated cleavage of human APP Swedish and London mutation expressed in HEK293 cells assessed as reduction of total amyloid beta/amyloid beta42 ratio after 5 hrs by sandwich immunoassay; assay type: cell-based
[4] = Dissociation constant, pKa of the compound; assay type: physicochemical

Row | SMILES | IC50 (Gamma-secretase [1]) [nM] | IC50 (Gamma-secretase [2]) [nM] | Ratio IC50 [3] | pKa [4]
1 | COc1cc(/C=C2\CCCN(C3(c4ccccc4)CCOCC3)C2=O)ccc1-n1cnc(C)c1 | 56 |  |  | 
2 | CNC[C@]1(c2ccc(F)cc2)ON=C2/C(=C/c3ccc(-n4cnc(C)c4)c(OC)c3)CCCN21 | 191 | > 20000 | > 105 | 
3 | COc1cc(/C=C2\CCCN3C2=NOC3(CO)c2cc(F)c(F)c(F)c2)ccc1-n1cnc(C)c1 (single isomer, unassigned) | 15 | 15800 | 1020 | 
4 | COc1cc(/C=C2\CCCN3C2=NOC3(CO)c2cc(F)cc(F)c2)ccc1-n1cnc(C)c1 (single isomer, unassigned) | 21 | 6750 | 316 | 
5 | c1ccc(-n2ccnc2)cc1 |  |  |  | 5.1
6 | COc1cc(/C=C2\CCCN3C2=NOC3(CO)c2ccccc2)ccc1-n1cnc(C)c1 (single isomer, unassigned) | 96 | 3210 | 33 | 
7 | COc1cc(/C=C2\CCCN3C2=NO[C@]3(CN(C)C(C)=O)c2ccc(F)cc2)ccc1-n1cnc(C)c1 | 199 | > 20000 | > 101 | 
8 | COc1cc(/C=C2\CCCN3C2=NO[C@@]3(c2ccc(F)cc2)[C@H](C)O)ccc1-n1cnc(C)c1 | 89 | > 20000 | > 225 | 

Further compounds by falling IC50 (Gamma-secretase [1]), results first:

Row | IC50 (Gamma-secretase [1]) [nM] | IC50 (Gamma-secretase [2]) [nM] | Ratio IC50 [3] | SMILES | pKa [4]
9 | 196 | 18800 | 96 | COc1cc(/C=C2\CCCN3C2=NO[C@]3(CN(C)C)c2ccc(F)cc2)ccc1-n1cnc(C)c1 | 
10 | 122 | 17500 | 144 | COC[C@]1(c2ccc(F)cc2)ON=C2/C(=C/c3ccc(-n4cnc(C)c4)c(OC)c3)CCCN21 | 
11 | 117 | > 20000 | > 171 | COc1cc(/C=C2\CCCN3C2=NOC3(CO)c2ccc(C#N)cc2)ccc1-n1cnc(C)c1 (single isomer, unassigned) | 
12 | 106 | > 20000 | > 189 | COc1cc(/C=C2\CCCN3C2=NOC3(CO)c2cncc(F)c2)ccc1-n1cnc(C)c1 (single isomer, unassigned) | 
13 | 103 | 19700 | 192 | COc1cc(/C=C2\CCCN3C2=NOC3(CO)c2ccc(F)cn2)ccc1-n1cnc(C)c1 (single isomer, unassigned) | 
14 | 80 | > 20000 | > 250 | COc1cc(/C=C2\CCCN3C2=NO[C@]3(CNCCO)c2ccc(F)cc2)ccc1-n1cnc(C)c1 | 
15 | 72 | 19300 | 269 | COc1cc(/C=C2\CCCN3C2=NO[C@]3(CN(C)S(C)(=O)=O)c2ccc(F)cc2)ccc1-n1cnc(C)c1 | 
16 | 60 |  |  | COCCCN(C(=O)/C=C/c1ccc(-n2cnc(C)c2)c(OC)c1)c1cccc2ccccc12 | 
17 | 53 | 10100 | 189 | COc1cc(/C=C2\CCCN3C2=NOC3(CO)c2ccccc2F)ccc1-n1cnc(C)c1 (single isomer, unassigned) | 
18 | 46 | 16200 | 350 | COc1cc(/C=C2\CCCN3C2=NO[C@@]3(c2ccc(F)cc2)[C@@H](C)O)ccc1-n1cnc(C)c1 | 
19 | 26 | 7160 | 280 | COc1cc(/C=C2\CCCN3C2=NOC3(CO)c2cccc(F)c2)ccc1-n1cnc(C)c1 (single isomer, unassigned) | 
